Laboratory results: patent US9351965B2, “Indazole derivatives useful as ERK inhibitors” (Merck Sharp & Dohme Corp., priority 2010, dated 2016)
pIC50: −log10 of the molar value.

Target: fully phosphorylated, active Mouse ERK2 protein (Mus musculus (Mouse), UniProt P63085)
Experiment: Active ERK2 (aERK) IMAP assay
Assay type: biochemical
Details: IMAP fluorescence polarization; 30 μM ATP; 30 minute pre-incubation
Procedure: 14 μl of kinase buffer (10 mM Tris.HCl pH 7.2, 10 mM MgCl2, 0.01% Tween-20, 1 mM DTT) containing 0.4 ng unphosphorylated Mouse ERK2 protein was added to each well of a black 384-well assay plate. […] DMSO concentration during initial incubation is 6.7%. […] DMSO concentration during ERK activation was 4%. After one hour, reactions were terminated by addition of 60 μl IMAP detections beads in binding buffer (Molecular Devices). Binding was allowed to equilibrate for 30 minutes before reading the plate on an LJL Analyst Fluorescence Polarization plate reader.
Active ERK2 (aERK) Assay:
Activated ERK2 activity was also determined in the IMAP assay format using the procedure outlined above. […] Reactions proceeded for 30 minutes before termination by addition of 60 μl IMAP detection beads in binding buffer. Plates were read as above after 30 minute binding equilibration.

fully phosphorylated, active Mouse ERK2 protein, sequence (P63085 whole entry): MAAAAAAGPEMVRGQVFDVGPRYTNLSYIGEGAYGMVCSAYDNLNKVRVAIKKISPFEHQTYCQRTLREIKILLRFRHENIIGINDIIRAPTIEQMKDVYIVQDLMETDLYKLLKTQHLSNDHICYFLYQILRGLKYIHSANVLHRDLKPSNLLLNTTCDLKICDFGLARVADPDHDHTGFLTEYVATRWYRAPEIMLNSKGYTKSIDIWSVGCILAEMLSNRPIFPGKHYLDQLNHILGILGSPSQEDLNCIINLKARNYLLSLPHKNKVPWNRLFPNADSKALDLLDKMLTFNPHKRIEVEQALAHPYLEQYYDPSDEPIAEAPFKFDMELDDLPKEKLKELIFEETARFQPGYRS

Structure (SMILES)	pIC50
Cc1cc(-c2n[nH]c3ccc(C(=O)N[C@@H]4CCC[C@](O)(Cn5cnc6cccnc65)C4)cc23)ccn1 (relative stereo) [compound 72, N-[trans-3-hydroxy-3-(3H-imidazo[4,5-b]pyridin-3-ylmethyl)cyclohexyl]-3-(2-methyl-4-pyridinyl)-1H-indazole-5-carboxamide]	6.27
Cc1cc(-c2n[nH]c3ccc(C(=O)NC4CCCC(O)(Cc5c(F)cccc5F)C4)cc23)ccn1 (single isomer, unassigned) [compound 8, N-[3-[(2,6-difluorophenyl)methyl]-3-hydroxycyclohexyl]-3-(2-methyl-4-pyridinyl)-1H-indazole-5-carboxamide]	6.00
Cc1cc(-c2n[nH]c3ccc(C(=O)NC4CCCC(Cc5ccccc5F)(C(=O)O)C4)cc23)ccn1 (mixture of isomers) [compound 131, cis/trans-1-[(2-fluorophenyl)methyl]-3-[[[3-(2-methyl-4-pyridinyl)-1H-indazol-5-yl]carbonyl]amino]cyclo-hexanecarboxylic acid]	6.00
Cc1cc(-c2n[nH]c3ccc(C(=O)NC4CCCC(O)(C(F)(F)c5ccccc5)C4)cc23)ccn1 (stereo not drawn) [compound 46, N-[3-(difluorophenylmethyl)-3-hydroxycyclohexyl]-3-(2-methyl-4-pyridinyl)-1H-indazole-5-carboxamide]	6.20
Cn1cc2cc(-c3n[nH]c4ccc(C(=O)N[C@@H]5CCC[C@](O)(Cn6cnc7ccccc76)C5)cc34)ccc2n1 (relative stereo) [compound 61, N-[trans-3-(1H-benzimidazol-1-ylmethyl)-3-hydroxycyclohexyl]-3-(2-methyl-2H-indazol-5-yl)-1H-indazole-5-carboxamide]	7.71
Cc1cc(-c2n[nH]c3ccc(C(=O)N[C@H]4CCC[C@@](O)(Cn5ncc6c(F)cccc65)C4)cc23)ccn1 (relative stereo) [compound 96, N-[trans-3-[(4-fluoro-1H-indazol-1-yl)methyl]-3-hydroxycyclohexyl]-3-(2-methyl-4-pyridinyl)-1H-indazole-5-carboxamide]	6.24
Cc1nc2ccc(-c3n[nH]c4ccc(C(=O)NC5CCCC(Cn6cc(C#N)c7ccccc76)C5)cc34)cc2s1 (stereo not drawn) [compound 112, N-[3-[(3-cyano-1H-indol-1-yl)methyl]cyclohexyl]-3-(2-methyl-6-benzothiazolyl)-1H-indazole-5-carboxamide]	6.00
COC1(Cc2ccccc2F)CCCC(NC(=O)c2ccc3[nH]nc(-c4ccnc(C)c4)c3c2)C1 (stereo not drawn) [compound 39, N-[3-[(2-fluorophenyl)methyl]-3-methoxycyclohexyl]-3-(2-methyl-4-pyridinyl)-1H-indazole-5-carboxamide]	7.55
Cn1cc2cc(-c3n[nH]c4ccc(C(=O)N[C@@H]5CCC[C@](O)(Cn6ccnc6)C5)cc34)ccc2n1 (relative stereo) [compound 58, N-[trans-3-hydroxy-3-(1H-imidazol-1-ylmethyl)cyclohexyl]-3-(2-methyl-2H-indazol-5-yl)-1H-indazole-5-carboxamide]	7.21
Cc1cc(-c2n[nH]c3ccc(C(=O)N[C@@H]4CCC[C@@](O)(Cn5cnc6ncccc65)C4)cc23)ccn1 (relative stereo) [compound 81, N-[cis-3-hydroxy-3-(1H-imidazo[4,5-b]pyridin-1-ylmethyl)cyclohexyl]-3-(2-methyl-4-pyridinyl)-1H-indazole-5-carboxamide]	6.08
Cc1cc(-c2n[nH]c3ccc(C(=O)N[C@H]4CCC[C@@](O)(Cn5cc6cccc(F)c6n5)C4)cc23)ccn1 (relative stereo) [compound 102, N-[trans-3-[(7-fluoro-2H-indazol-2-yl)methyl]-3-hydroxycyclohexyl]-3-(2-methyl-4-pyridinyl)-1H-indazole-5-carboxamide]	6.15
Cc1cc(-c2n[nH]c3ccc(C(=O)NC4CCCC(Oc5ccccc5F)C4)cc23)ccn1 (single isomer, unassigned) [compound 27, N-[3-(2-fluorophenoxy)cyclohexyl]-3-(2-methyl-4-pyridinyl)-1H-indazole-5-carboxamidem]	7.21
Cc1cc(-c2n[nH]c3ccc(C(=O)N[C@@H]4CCC[C@](O)(Cn5cnc6ncccc65)C4)cc23)ccn1 (relative stereo) [compound 71, N-[trans-3-hydroxy-3-(1H-imidazo[4,5-b]pyridin-1-ylmethyl)cyclohexyl]-3-(2-methyl-4-pyridinyl)-1H-indazole-5-carboxamide]	6.33
Cc1cc(-c2n[nH]c3ccc(C(=O)NN4CCCC(CO)(Oc5cc(F)ccc5F)C4)cc23)ccn1 (stereo not drawn) [compound 147, N-[3-(2,5-difluorophenoxy)-3-(hydroxymethyl)-1-piperidinyl]-3-(2-methyl-4-pyridinyl)-1H-indazole-5-carboxamide]	6.41
Cc1cc(-c2n[nH]c3ccc(C(=O)N[C@H]4CCC[C@](O)(Cn5ncc6ccc(C(F)(F)F)cc65)C4)cc23)ccn1 (relative stereo) [compound 106, N-[cis-3-hydroxy-3-[[6-(trifluoromethyl)-1H-indazol-1-yl]methyl]cyclohexyl]-3-(2-methyl-4-pyridinyl)-1H-indazole-5-carboxamide]	6.97
Cc1cc(-c2n[nH]c3ccc(C(=O)NC4CCCC(Cc5ccccc5F)(NC=O)C4)cc23)ccn1 (stereo not drawn) [compound 153, N-[3-[(2-fluorophenyl)methyl]-3-(formylamino)cyclohexyl]-3-(2-methyl-4-pyridinyl)-1H-indazole-5-carboxamide]	6.79
Cn1cc2cc(-c3n[nH]c4ccc(C(=O)N[C@@H]5CCC[C@@](O)(Cn6cnc7ccccc76)C5)cc34)ccc2n1 (relative stereo) [compound 62, N-[cis-3-(1H-benzimidazol-1-ylmethyl)-3-hydroxycyclohexyl]-3-(2-methyl-2H-indazol-5-yl)-1H-indazole-5-carboxamide]	7.70
Cc1cc(-c2n[nH]c3ccc(C(=O)N[C@@H]4CCC[C@@](O)(Cn5cc6cccnc6n5)C4)cc23)ccn1 (relative stereo) [compound 78, N-[cis-3-hydroxy-3-(2H-pyrazolo[3,4-b]pyridin-2-ylmethyl)cyclohexyl]-3-(2-methyl-4-pyridinyl)-1H-indazole-5-carboxamide]	6.23
Cc1cc(-c2n[nH]c3ccc(C(=O)NC4CCCC(O)(Cc5c(F)cccc5F)C4)cc23)ccn1 (single isomer, unassigned) [compound 6, N-[3-[(2,6-difluorophenyl)methyl]-3-hydroxycyclohexyl]-3-(2-methyl-4-pyridinyl)-1H-indazole-5-carboxamide]	6.00
Cc1cc(-c2n[nH]c3ccc(C(=O)N[C@@H]4CCC[C@](O)(Cn5c(C)nc6cnccc65)C4)cc23)ccn1 (relative stereo) [compound 76, N-[trans-3-hydroxy-3-[(2-methyl-1H-imidazo[4,5-c]pyridin-1-yl)methyl]cyclohexyl]-3-(2-methyl-4-pyridinyl)-1H-indazole-5-carboxamide]	6.87
Cc1cc(-c2n[nH]c3ccc(C(=O)N[C@@H]4CCC[C@@](O)(CN5C(=O)Cc6ccccc65)C4)cc23)ccn1 (relative stereo) [compound 92, N-[cis-3-[(2,3-dihydro-2-oxo-1H-indol-1-yl)methyl]-3-hydroxycyclohexyl]-3-(2-methyl-4-pyridinyl)-1H-indazole-5-carboxamide]	7.97
